In US7888079B2, “Nε-acyl-L-lysine-specific aminoacylase” (Ajinomoto Co., Inc., priority 2005, dated 2011):
Read-outs that look alike come from different tables or passages of the source.

Legend:
[1] = system: aminoacylase of the present invention (Nε-acyl-L-lysine-specific aminoacylase); test: Effect of various inhibitors on the hydrolyzing activity of the aminoacylase; assay type: biochemical, Streptomyces mobaraensis; settings: hydrolysis activity where nothing was added = 100
Protocol: The activity of the enzyme of the present invention can be measured based on a method of measuring Nε-acetyl-L-lysine hydrolysis activity. For example, the activity of the enzyme of the present invention may be measured by incubating the enzyme with a defined concentration of Nε-acetyl-L-lysine as a substrate for 30 minutes at 37° C. (50 mM Tris-HCl buffer, pH 8.0), and assaying the released L-lysine. 1 U (unit) of the enzyme of the present invention is defined as the amount of the enzyme required to hydrolyze 1 micromole of Nε-acetyl-L-lysine per hour when incubated for 30 minutes at 37° C. (50 mM Tris-HCl buffer, pH 8.0) with 4 mM Nε-acetyl-L-lysine as the substrate, and the released L-lysine was assayed by the acidic ninhydrin method.
The activity of the enzyme of the present invention was measured by incubating the enzyme (50 mM Tris-HCl buffer, pH 8.0) for 30 minutes at 37° C. with a defined concentration of Nε-acetyl-L-lysine as the substrate, and assaying the released L-lysine. 1 U (unit) of the enzyme of the present invention is defined as the amount of the enzyme required to hydrolyze 1 micromole of Nε-acetyl-L-lysine per hour at 37° C. for 30 minutes in 50 mM Tris-HCl buffer, pH 8.0 with 4 mM of Nε-acetyl-L-lysine as the substrate, and the released L-lysine was assayed by acidic ninhydrin method.
The effects of various inhibitors on hydrolysis activity were compared by the measurement methods described above using a purified enzyme obtained as in Example 2. In Table 2, the enzyme activity is presented as a relative value (%) given 100 as hydrolysis activity where nothing was added.

[2] = system: aminoacylase of the present invention (Nε-acyl-L-lysine-specific aminoacylase); test: Effects of metal ions on hydrolysis activity of enzyme dialyzed against 0-phenanthroline solution; assay type: biochemical, Streptomyces mobaraensis; settings: final concentration 0.1 mM
[3] = system: enzyme of the present invention (aminoacylase); test: Reactivity of the enzyme on various N-acetyl-L-amino acids (substrate specificity); assay type: biochemical, Streptomyces mobaraensis; settings: for Specific activity (relative activity): relative to Nε-acetyl-L-Lys = 100%; for Specific activity: 1-hour reaction, 50 mM Tris-HCl buffer pH 8.2, 37° C., ND: below detection limit
Protocol: (§1) The reactivity of the enzyme of the present invention on various N-acetyl-L-amino acids (final concentration 4 mM) was studied to investigate substrate specificity. In Tables 4 and 5 below, the amount (micro mole) of substrate (acetyl-L-amino acid) hydrolyzed per 1 mg of enzyme protein in a 1-hour reaction in 50 mM Tris-HCl buffer (pH 8.2) at 37° C. is given as specific activity.

S. mobaraensis enzyme = test: Hydrolysis activity on Nε-acyl-L-lysines with various acyl groups, S. mobaraensis enzyme; assay type: biochemical, Streptomyces mobaraensis; settings: for Specific activity, S. mobaraensis enzyme: 1-hour reaction, 50 mM Tris-HCl buffer pH 8.2, 37° C.
Protocol: as §1
(§2) Substrate specificity was investigated based on hydrolysis activity on Nε-acyl-L-lysines with various acyl groups.

A. pestifer enzyme [4] = settings: values marked * from Chibata et al. (1970); cited from earlier work
A. pestifer enzyme [5] = test: Hydrolysis activity on Nε-acyl-L-lysines with various acyl groups, A. pestifer enzyme; assay type: biochemical, Achromobacter pestifer
From the text: as §2

[6] = hydrolysis activity with nothing added = 100

c1cnc2c(c1)ccc1cccnc12 [0-phenanthroline]
Relative activity (%) ([1]; added concentration 1 mM): 10.3%

[Ca+2].[Cl-].[Cl-] [CaCl2]
Relative activity (%) [2, 6]: 110.3%

[Cl-].[Cl-].[Co+2] [CoCl2]
Relative activity (%) [2]: 140.8%

O=S(=O)([O-])[O-].[Cu+2] [CuSO4]
Relative activity (%) [2, 6]: 67.2%

O[C@@H](CS)[C@@H](O)CS [DTT]
Relative activity (%) ([1]; added concentration 1 mM): 64.7%

O=C(O)CN(CCN(CC(=O)O)CC(=O)O)CC(=O)O [EDTA]
Relative activity (%) ([1]; added concentration 1 mM): 74.6%

O=S(=O)([O-])[O-].[Fe+2] [FeSO4]
Relative activity (%) [2, 6]: 85.3%

N[C@@H](CCC(=O)N[C@@H](CS)C(=O)NCC(=O)O)C(=O)O [GSH]
Relative activity (%) ([1]; added concentration 1 mM): 80.0%

NC(=O)CI [Iodoacetamide]
Relative activity (%) ([1]; added concentration 1 mM): 83.1%

[Cl-].[K+] [KCl]
Relative activity (%) [2, 6]: 110.2%

N[C@@H](CS)C(=O)O [L-cysteine]
Relative activity (%) ([1]; added concentration 1 mM): 77.6%

O=S(=O)([O-])[O-].[Mg+2] [MgSO4]
Relative activity (%) [2, 6]: 121.1%

O=S(=O)([O-])[O-].[Mn+2] [MnSO4]
Relative activity (%) [2, 6]: 114.1%

CC(=O)N[C@@H](CCCCN)C(=O)O [Nα-acetyl-L-Lys]
Specific activity (relative activity) [3]: 2.1%
Specific activity ([3]; substrate 4 mM): 70 µmol/mg

CCCCCCCCCCCC(=O)N[C@@H](CCCCN)C(=O)O [Nα-lauroyl-L-Lys]
hydrolysis activity of the enzyme of the present invention (in words) (S. mobaraensis enzyme): no hydrolysis activity
Specific activity, S. mobaraensis enzyme (S. mobaraensis enzyme): 0 µmol/mg

CC(=O)NCCCC[C@H](N)C(=O)O [Nε-acetyl-L-Lys]
Specific activity, A. pestifer enzyme (A. pestifer enzyme [4]): 2,700* μmol/mg
Specific activity, S. mobaraensis enzyme (S. mobaraensis enzyme): 3,370 μmol/mg
Specific activity (relative activity) [3]: 100%
hydrolysis activity on N-acetyl-L-amino acids (in words) ([3]; substrate 4 mM): strong hydrolysis activity
Specific activity ([3]; substrate 4 mM): 3370 µmol/mg

N[C@@H](CCCCNC(=O)c1ccccc1)C(=O)O [Nε-benzoyl-L-Lys]
Specific activity, A. pestifer enzyme (A. pestifer enzyme [4]): 15,000* μmol/mg
Specific activity, S. mobaraensis enzyme (S. mobaraensis enzyme): 1,380 μmol/mg

N[C@@H](CCCCNC(=O)CCl)C(=O)O [Nε-chloroacetyl-L-lys]
Specific activity, A. pestifer enzyme (A. pestifer enzyme [4]): 5,300* μmol/mg
Specific activity, S. mobaraensis enzyme (S. mobaraensis enzyme): 1,030 μmol/mg

CCCCCCCCCCCC(=O)NCCCC[C@H](N)C(=O)O [Nε-lauroyl-L-Lys]
hydrolysis activity of the enzyme from A. pestifer (in words) (A. pestifer enzyme [5]): very little hydrolysis activity
Specific activity, A. pestifer enzyme (A. pestifer enzyme [5]; value without literature mark): 0.4 µmol/mg
Specific activity, S. mobaraensis enzyme (S. mobaraensis enzyme): 28 µmol/mg

CCCCCCCC(=O)NCCCC[C@H](N)C(=O)O [Nε-octanoyl-L-Lys]
Specific activity, A. pestifer enzyme (A. pestifer enzyme [4]): 12,500* μmol/mg
Specific activity, S. mobaraensis enzyme (S. mobaraensis enzyme): 570 µmol/mg

O=C(O)c1cc[c]([Hg][Cl])cc1 [PCMB]
Relative activity (%) ([1]; added concentration 1 mM): 86.1%

O=S(=O)([O-])[O-].[Zn+2] [ZnSO4]
Relative activity (%) [2, 6]: 103.3%

OCCS [β-mercaptoethanol]
Relative activity (%) ([1]; added concentration 10 mM): 87.5%
